According to ChEMBL document CHEMBL1201862, “PubChem BioAssay data set” (2004):
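Each compound was tested at five concentrations against cells in 96-well plates for 48 hours. GI50: concentration for 50% inhibition of growth.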 Calls of active or inactive are those of the source. Rule as the data show it: active = GI50 up to about 1.1 µM and inactive = higher.

Tests used:
Assay in all cases: DTP human tumour cell line panel, 48 h
A498 = system: A498
A549 = system: A549
CCRF-CEM = system: CCRF-CEM
COLO 205 = system: COLO 205
DLD-1 = system: DLD-1
DMS-114 = system: DMS-114
DMS-273 = system: DMS-273
EKVX = system: EKVX
HCC 2998 = system: HCC 2998
HCT-116 = system: HCT-116
HCT-15 = system: HCT-15
HL-60 = system: HL-60
HOP-18 = system: HOP-18
HOP-62 = system: HOP-62
HOP-92 = system: HOP-92
HT-29 = system: HT-29
IGROV-1 = system: IGROV-1
K562 = system: K562
KM-20L2 = system: KM-20L2
KM12 = system: KM12
LOX IMVI = system: LOX IMVI
M19-MEL = system: M19-MEL
MCF7 = system: MCF7
MOLT-4 = system: MOLT-4
Malme-3M = system: Malme-3M
NCI-H226 = system: NCI-H226
NCI-H23 = system: NCI-H23
NCI-H460 = system: NCI-H460
NCI-H522 = system: NCI-H522
NCI/ADR-RES = system: NCI/ADR-RES
OVCAR-3 = system: OVCAR-3
OVCAR-4 = system: OVCAR-4
OVCAR-5 = system: OVCAR-5
OVCAR-8 = system: OVCAR-8
RPMI-8226 = system: RPMI-8226
RXF 393 = system: RXF 393
SF-268 = system: SF-268
SF-295 = system: SF-295
SF-539 = system: SF-539
SK-MEL-28 = system: SK-MEL-28
SK-MEL-2 = system: SK-MEL-2
SK-MEL-5 = system: SK-MEL-5
SK-OV-3 = system: SK-OV-3
SN12C = system: SN12C
SNB-19 = system: SNB-19
SNB-75 = system: SNB-75
SNB-78 = system: SNB-78
SW-620 = system: SW-620
U-251 = system: U-251
UACC-257 = system: UACC-257
UACC-62 = system: UACC-62
UO-31 = system: UO-31
XF498 = system: XF498
786-0 = system: 786-0
CAKI-1 = system: CAKI-1
SR = system: SR
TK-10 = system: TK-10
ACHN = system: ACHN
M14 = system: M14

Measured: GI50

O=C1C=C(C2OC(CO)C(O)C2O)C(=O)N1 (centres undefined)
> 74.5 µM: HCT-15
active: XF498 < 0.01 µM
inactive: A498 > 100 µM | A549 > 100 µM | CCRF-CEM 32.5 µM | COLO 205 76.9 µM | DLD-1 > 85.3 µM | DMS-114 54.8 µM | DMS-273 > 100 µM | EKVX > 100 µM | HCC 2998 > 100 µM | HCT-116 > 100 µM | HL-60 45.9 µM | HOP-18 > 100 µM | HOP-62 > 100 µM | HOP-92 > 100 µM | HT-29 > 100 µM | IGROV-1 > 100 µM | K562 47.6 µM | KM-20L2 > 100 µM | KM12 > 100 µM | LOX IMVI > 100 µM | M19-MEL > 100 µM | MCF7 > 91.8 µM | MOLT-4 45.6 µM | Malme-3M > 100 µM | NCI-H226 > 100 µM | NCI-H23 > 100 µM | NCI-H460 > 100 µM | NCI-H522 19.8 µM | NCI/ADR-RES > 100 µM | OVCAR-3 > 100 µM | OVCAR-4 > 100 µM | OVCAR-5 > 100 µM | OVCAR-8 > 100 µM | RPMI-8226 > 51.1 µM | RXF 393 > 100 µM | SF-268 > 100 µM | SF-295 > 100 µM | SF-539 > 100 µM | SK-MEL-28 > 100 µM | SK-MEL-2 > 100 µM | SK-MEL-5 > 100 µM | SK-OV-3 > 100 µM | SN12C > 100 µM | SNB-19 > 100 µM | SNB-75 > 100 µM | SNB-78 > 100 µM | SW-620 26 µM | U-251 > 100 µM | UACC-257 > 100 µM | UACC-62 > 100 µM | UO-31 > 100 µM

CSc1nc(-c2ccc(Cl)cc2)c(C#N)c(=O)n1C1OC(COC(C)=O)C(OC(C)=O)C(OC(C)=O)C1OC(C)=O (centres undefined)
> 100 µM: HCT-15
inactive: 786-0 > 100 µM | A549 > 100 µM | CAKI-1 > 100 µM | COLO 205 > 100 µM | DLD-1 > 100 µM | DMS-273 > 100 µM | EKVX > 100 µM | HCC 2998 > 100 µM | HL-60 > 100 µM | HOP-18 29.9 µM | IGROV-1 57.1 µM | K562 > 100 µM | KM12 > 100 µM | MOLT-4 > 75 µM | NCI-H226 33 µM | OVCAR-3 12.6 µM | OVCAR-8 > 100 µM | SK-MEL-2 53.8 µM | SK-MEL-5 > 100 µM | SN12C > 100 µM | SR > 100 µM | SW-620 > 100 µM | TK-10 > 100 µM | XF498 > 100 µM

NC1=Nc2ccccc2Sc2ccccc21
> 100 µM: HCT-15
inactive: 786-0 > 100 µM | A498 84.9 µM | A549 > 100 µM | ACHN > 100 µM | CAKI-1 > 100 µM | CCRF-CEM > 100 µM | COLO 205 > 100 µM | DLD-1 > 100 µM | DMS-114 > 100 µM | DMS-273 > 100 µM | EKVX > 100 µM | HCC 2998 > 100 µM | HCT-116 35.9 µM | HL-60 > 100 µM | HOP-62 > 100 µM | HOP-92 32.7 µM | HT-29 > 100 µM | IGROV-1 > 100 µM | K562 82.6 µM | KM-20L2 > 100 µM | KM12 > 100 µM | LOX IMVI > 100 µM | M14 > 100 µM | M19-MEL > 100 µM | MOLT-4 > 100 µM | Malme-3M > 100 µM | NCI-H226 24.4 µM | NCI-H23 > 100 µM | NCI-H460 > 100 µM | NCI-H522 60.3 µM | OVCAR-3 > 100 µM | OVCAR-4 > 100 µM | OVCAR-5 > 100 µM | OVCAR-8 > 100 µM | RPMI-8226 77.4 µM | RXF 393 95.7 µM | SF-268 56.9 µM | SF-295 > 100 µM | SF-539 58.5 µM | SK-MEL-28 > 100 µM | SK-MEL-2 > 100 µM | SK-MEL-5 91.8 µM | SK-OV-3 > 100 µM | SN12C > 100 µM | SNB-19 87.3 µM | SNB-75 16.5 µM | SNB-78 > 100 µM | SR > 100 µM | SW-620 > 100 µM | TK-10 > 100 µM | U-251 > 100 µM | UACC-257 > 100 µM | UACC-62 > 100 µM | UO-31 34.4 µM | XF498 52.1 µM
active: HOP-18 0.912 µM

C=CCCCCCCCCC(=O)O [UNDECYLENIC ACID]
inactive: A549 103 µM | CAKI-1 106 µM | CCRF-CEM 128 µM | COLO 205 41.3 µM | DLD-1 76.2 µM | DMS-114 135 µM | DMS-273 127 µM | EKVX 116 µM | HCC 2998 108 µM | HCT-116 110 µM | HL-60 101 µM | HOP-18 125 µM | HOP-62 105 µM | HOP-92 83.2 µM | HT-29 118 µM | IGROV-1 113 µM | K562 152 µM | KM-20L2 114 µM | KM12 27.7 µM | LOX IMVI 102 µM | M19-MEL 149 µM | MCF7 152 µM | MOLT-4 110 µM | Malme-3M 142 µM | NCI-H226 155 µM | NCI-H23 122 µM | NCI-H460 94.2 µM | NCI-H522 105 µM | NCI/ADR-RES 172 µM | OVCAR-3 67 µM | OVCAR-4 132 µM | OVCAR-5 145 µM | OVCAR-8 121 µM | RPMI-8226 129 µM | RXF 393 93.1 µM | SF-268 91 µM | SF-295 109 µM | SF-539 110 µM | SK-MEL-28 135 µM | SK-MEL-2 85.3 µM | SK-MEL-5 93.8 µM | SK-OV-3 138 µM | SN12C 149 µM | SNB-19 150 µM | SNB-75 168 µM | SNB-78 106 µM | SW-620 125 µM | U-251 112 µM | UACC-257 179 µM | UACC-62 79.8 µM | UO-31 80.7 µM | XF498 17.1 µM
active: A498 0.798 µM
76.6 µM: HCT-15
